# Assay results reported in patent publication US20100041892A1, “Therapeutic agent for diabetes” (priority 2005, published 2010).
row,SMILES,melting point
1,"CC(C)OCCNS(=O)(=O)NC(=O)OCCCc1ccc(OCc2ccco2)cc1Oc1ncc(C(F)(F)F)cc1Cl [Example 476, 3-[2-{[3-chloro-5-(trifluoromethyl)pyridin-2-yl]oxy}-4-(2-furylmethoxy)phenyl]propyl {[(2-isopropoxyethyl)amino]sulfonyl}carbamate]",118 to 119.8 °C
2,"CCCCCS(=O)(=O)NC(=O)/C=C/c1ccc(OCCOC)cc1Nc1ccc(C(F)(F)F)cc1Cl [Example 184, (2E)-3-[2-{[2-chloro-4-(trifluoromethyl)phenyl]amino}-4-(2-methoxyethoxy)phenyl]-N-(pentylsulfonyl)acrylamide]",173.5 to 174.8 °C
3,"CCCCCS(=O)(=O)NC(=O)CCc1ccc(OCCC2(C)OCCO2)cc1Oc1ncc(C(F)(F)F)cc1Cl [Example 425, 3-{2-{[3-chloro-5-(trifluoromethyl)pyridin-2-yl]oxy}-4-[2-(2-methyl-1,3-dioxolan-2-yl)ethoxy]phenyl}-N-(pentylsulfonyl)propanamide]",96.5 to 97.5 °C
4,"CCCCOc1cc(CCS(=O)(=O)NC(=O)OCCOC)n(Cc2ccc(Cl)cc2Cl)n1 [Example 134, 2-methoxyethyl ({2-[3-butoxy-1-(2,4-dichlorobenzyl)-1H-pyrazol-5-yl]ethyl}sulfonyl)carbamate]",82 to 86 °C
5,"COCCOc1ccc(CCCOC(=O)NS(=O)(=O)NCCc2ccccc2)c(Oc2ncc(C(F)(F)F)cc2Cl)c1 [Example 206, 3-[2-{[3-chloro-5-(trifluoromethyl)pyridin-2-yl]oxy}-4-(2-methoxyethoxy)phenyl]propyl {[(2-phenylethyl)amino]sulfonyl}carbamate]",110 to 113 °C
6,"CCCCCS(=O)(=O)NC(=O)CCc1cc(OC(C)C)nn1Cc1ccc(F)cc1F [Example 80, 3-[1-(2,4-difluorobenzyl)-3-isopropoxy-1H-pyrazol-5-yl]-N-(pentylsulfonyl)propanamide]",107 to 108 °C
7,"CCCCCS(=O)(=O)NC(=O)/C=C/c1ccc(OCC(COC(C)C)OC(C)=O)cc1Oc1ncc(C(F)(F)F)cc1Cl (stereo not shown) [Example 455, 2-(3-{[3-chloro-5-(trifluoromethyl)pyridin-2-yl]oxy}-4-{(1E)-3-oxo-3-[(pentylsulfonyl)amino]prop-1-en-1-yl}phenoxy)-1-(isopropoxymethyl)ethyl acetate]",101 to 103 °C
8,"CCCCCS(=O)(=O)NC(=O)/C=C/c1ccc(OCCOC)cc1Oc1ncc(-c2ccccc2)cc1C [Example 467, (2E)-3-{4-(2-methoxyethoxy)-2-[(3-methyl-5-phenylpyridin-2-yl)oxy]phenyl}-N-(pentylsulfonyl)acrylamide]",132.8 to 133.5 °C
9,"COCCOc1ccc(/C=C/C(=O)NS(=O)(=O)c2ccc(Cl)cc2)c(Oc2ncc(C(F)(F)F)cc2Cl)c1 [Example 229, (2E)-N-[(4-chlorophenyl)sulfonyl]-3-[2-{[3-chloro-5-(trifluoromethyl)pyridin-2-yl]oxy}-4-(2-methoxyethoxy)phenyl]acrylamide]",182 to 182.5 °C
10,"CCCCCS(=O)(=O)NC(=O)OCc1ccc(OC(C)C)cc1Oc1ncc(C(F)(F)F)cc1Cl [Example 63, 2-{[3-chloro-5-(trifluoromethyl)pyridin-2-yl]oxy}-4-isopropoxybenzyl (pentylsulfonyl)carbamate]",70 to 73 °C
11,"COCCCS(=O)(=O)NC(=O)/C=C/c1cc(OCC2CC2)nn1Cc1ccc(C(F)(F)F)cc1Cl [Example 119, (2E)-3-[1-[2-chloro-4-(trifluoromethyl)benzyl]-3-(cyclopropylmethoxy)-1H-pyrazol-5-yl]-N-[(3-methoxypropyl)sulfonyl]acrylamide]",137 to 138 °C
12,"CCCCOC(=O)NS(=O)(=O)/C=C/c1cc(OCCCC)nn1Cc1ccc(Cl)cc1Cl [Example 130, butyl ({(E)-2-[3-butoxy-1-(2,4-dichlorobenzyl)-1H-pyrazol-5-yl]vinyl}sulfonyl)carbamate]",137 to 138 °C
13,"CCCCCS(=O)(=O)NC(=O)/C=C/c1ccc(OCCOC)cc1Oc1ncc(NC(=O)OC(C)(C)C)cc1C [Example 192, tert-butyl [6-(5-(2-methoxyethoxy)-2-{(1E)-3-oxo-3-[(pentylsulfonyl)amino]prop-1-en-1-yl}phenoxy)-5-methylpyridin-3-yl]carbamate]",149.5 to 150.2 °C
14,"CC(C)CCS(=O)(=O)NC(=O)CCc1cc(C2CC2)nn1Cc1ccc(C(F)(F)F)cc1Cl [Example 157, 3-{1-[2-chloro-4-(trifluoromethyl)benzyl]-3-cyclopropyl-1H-pyrazol-5-yl}-N-[(3-methylbutyl)sulfonyl]propanamide]",160.5 to 162.5 °C
15,"CCCCOc1cc(/C=C/C(=O)NS(=O)(=O)CCC(C)C)n(Cc2ccc(C(F)(F)F)cc2Cl)n1 [Example 150, (2E)-3-{3-butoxy-1-[2-chloro-4-(trifluoromethyl)benzyl]-1H-pyrazol-5-yl}-N-[(3-methylbutyl)sulfonyl]acrylamide]",89.5 to 90.5 °C
16,"COCCOc1ccc(COC(=O)NS(=O)(=O)Nc2ccc(Cl)cc2)c(Oc2ncc(C(F)(F)F)cc2Cl)c1 [Example 68, 2-{[3-chloro-5-(trifluoromethyl)pyridin-2-yl]oxy}-4-(2-methoxyethoxy)benzyl {[(4-chlorophenyl)amino]sulfonyl}carbamate]",159 °C (dec.)
17,"CCCCCS(=O)(=O)NC(=O)/C=C/c1ccc(OCCOC)cc1Oc1ncc(NC(C)=O)cc1C [Example 463, (2E)-3-[2-{[5-(acetylamino)-3-methylpyridin-2-yl]oxy}-4-(2-methoxyethoxy)phenyl]-N-(pentylsulfonyl)acrylamide]",187.9 to 188.2 °C
18,"CCCCCS(=O)(=O)NC(=O)/C=C/c1ccc(OCCOC)cc1Oc1ncc(Br)cc1C [Example 460, (2E)-3-[2-[(5-bromo-3-methylpyridin-2-yl)oxy]-4-(2-methoxyethoxy)phenyl]-N-(pentylsulfonyl)acrylamide]",159.8 to 160.2 °C
19,"CCCCCS(=O)(=O)NC(=O)/C=C/c1ccc(OCC(C)=O)cc1Oc1ncc(C(F)(F)F)cc1Cl [Example 452, (2E)-3-[2-{[3-chloro-5-(trifluoromethyl)pyridin-2-yl]oxy}-4-(2-oxopropoxy)phenyl]-N-(pentylsulfonyl)acrylamide]",187 to 188 °C
20,"COCCOc1ccc(/C=C/C(=O)NS(=O)(=O)C(F)(F)F)c(Oc2ncc(C(F)(F)F)cc2Cl)c1 [Example 243, (2E)-3-[2-{[3-chloro-5-(trifluoromethyl)pyridin-2-yl]oxy}-4-(2-methoxyethoxy)phenyl]N-[(trifluoromethyl)sulfonyl]acrylamide]",125.5 to 128 °C
21,"CCOC(=O)c1cnc(Oc2cc(OCCOC)ccc2CCCOC(=O)NCC2CC2)c(Cl)c1 [Example 465, ethyl 5-chloro-6-[2-[3-({[(cyclopropylmethyl)amino]carbonyl}oxy)propyl]-5-(2-methoxyethoxy)phenoxy]nicotinate]",94.6 to 94.8 °C
22,"CCCCCS(=O)(=O)NC(=O)/C=C/c1ccc(OCCOC)cc1NC(=O)c1ccc(Cl)cc1Cl [Example 189, 2,4-dichloro-N-(5-(2-methoxyethoxy)-2-{(1E)-3-oxo-3-[(pentylsulfonyl)amino]prop-1-en-1-yl}phenyl)benzamide]",176.8 to 177.1 °C
